Laboratory results as given in paper PMC2810320 (Journal of the American Chemical Society, 2010).

Columns and labels:
porcine bc1 complex [1] = biological target: T1, porcine bc1 complex (Sus scrofa, UniProt P24964); experiment: Succinate-cytochrome c reductase; format: biochemical; conditions: for ΔG ΔGexp.: ΔGexp. = −RTlnKi
porcine bc1 complex [2] = biological target: T1, porcine bc1 complex; experiment: Ubiquinol-cytochrome c reductase; format: biochemical
[3] = DBH2 and cytochrome c as substrates, pH 6.5, 750 µM lauryl maltoside

T1 sequence (P24964 whole entry, one chain of several): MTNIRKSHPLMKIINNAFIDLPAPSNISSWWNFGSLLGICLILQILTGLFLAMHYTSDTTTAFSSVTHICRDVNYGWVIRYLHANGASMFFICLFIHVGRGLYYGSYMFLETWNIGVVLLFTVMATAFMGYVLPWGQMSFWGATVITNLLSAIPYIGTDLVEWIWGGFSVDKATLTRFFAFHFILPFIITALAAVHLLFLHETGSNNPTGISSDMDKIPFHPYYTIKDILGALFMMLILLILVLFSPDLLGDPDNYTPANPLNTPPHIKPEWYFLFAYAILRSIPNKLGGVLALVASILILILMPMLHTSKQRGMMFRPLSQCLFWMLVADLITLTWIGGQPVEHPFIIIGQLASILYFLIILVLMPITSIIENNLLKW

| Structure (SMILES) | ΔG ΔGexp. (porcine bc1 complex [1]) | other results |
| --- | --- | --- |
| CO/C=C(/C(=O)OC)c1ccccc1COc1cc(-c2ccccc2OC)nn1C [Compound 6a] | -10.29 kcal/mol | – |
| CO/C=C(/C(=O)OC)c1ccccc1COc1cc(-c2cc(C)ccc2OC)nn1C [Compound 6b] | -10.52 kcal/mol | – |
| CO/N=C(/C(=O)OC)c1ccccc1COc1ccccc1C [KM, kresoxim-methyl, reference compound] | -9.28 kcal/mol | – |
| CO/C=C(/C(=O)OC)c1ccccc1COc1cc(-c2ccccc2OC(=O)c2ccc(F)cc2)nn1C [Compound 6d] | -9.56 kcal/mol | – |
| CO/C=C(/C(=O)OC)c1ccccc1COc1cc(-c2ccccc2O)nn1C [Compound 5a] | -12.19 kcal/mol | – |
| CO/C=C(/C(=O)OC)c1ccccc1COc1cc(-c2cc(C)ccc2O)nn1C [Compound 5b] | -11.62 kcal/mol | – |
| CO/C=C(/C(=O)OC)c1ccccc1Oc1cc(Oc2ccccc2C#N)ncn1 [AZ, azoxystrobin, reference compound] | -8.92 kcal/mol | – |
| CO/N=C(/C(=O)OC)c1ccccc1COc1cc(-c2ccccc2O)nn1C [Compound 5d] | -11.50 kcal/mol | – |
| CO/C=C(/C(=O)OC)c1ccccc1COc1cc(-c2ccccc2OCc2ccccc2)nn1C [Compound 6c] | -10.79 kcal/mol | – |
| COC(=O)N(OC)c1ccccc1COc1ccn(-c2ccc(Cl)cc2)n1 [PY, pyraclostrobin, reference compound] | -11.59 kcal/mol | – |
| CO/C=C(/C(=O)OC)c1ccccc1COc1cc(-c2cc(Cl)ccc2O)nn1C [Compound 5c] | -12.63 kcal/mol | type of inhibition with respect to substrate cytochrome c (porcine bc1 complex [1]; kobs independent of cytochrome c concentration, 5 nM 5c): non-competitive inhibitor; kon (porcine bc1 complex [1]; pH 7.4, read-out: apparent rate constant A (association rate constant k+0)): 6.31e+06 ± 360000 M⁻¹ s⁻¹; koff (porcine bc1 complex [1]; pH 7.4, read-out: apparent rate constant B (dissociation rate constant k−0)): 0.00358 s⁻¹; fold improved binding affinity compared to AZ (porcine bc1 complex [1]; ratio of Ki values, vs AZ): about 522 fold; Ki (porcine bc1 complex [2]): 2.6 ± 0.1 nM; microscopic inhibition rate constant k+0 (porcine bc1 complex [2]; [3]): 1.85e+06 ± 30000 M⁻¹ s⁻¹; microscopic inhibition rate constant k−0 (porcine bc1 complex [2]; [3]): 0.0048 ± 0.00018 s⁻¹; Ki fold higher than that measured from succinate-cytochrome c reductase activity inhibition (porcine bc1 complex [2]; DBH2 assay Ki vs SCR assay Ki): about 5 fold; type of inhibition with respect to substrate ubiquinol (porcine bc1 complex [2]; varying DBH2 20–115 µM): competitive inhibitor |
